This passage reports activation and AC40 results from PubChem BioAssay AID624269 (Broad Institute, 2012).

Active and inactive are the calls of the source. The rule behind the calls is not given here. Some results are limits rather than exact numbers.

Assay [1] can be described thus: Vibrio cholerae BH1651 luxOD47E, luciferase light induction, confirmatory dose response (AID 624269). The settings on record: Vibrio cholerae BH1651 luxOD47E, luciferase light induction, 6 h.
The test system of assay [2] is Vibrio cholerae BH1651 luxOD47E, luciferase light induction, 6 h. The assay is described as above.

For the compound `CCCn1nnnc1NCc1ccc(N(CC)CC)cc1`, the activation in assay [1] (at 35 µM (top of the series)) was 0% (inactive). Take `O=C(Nc1nnc(-c2ccc3c(c2)OCCO3)o1)C1CCCCC1`: in assay [2], the AC40 was 0.865 nM. Turning to `CCCn1nnnc1NCc1ccc(C(C)C)cc1`, in assay [1] (at 35 µM (top of the series)), the activation is 33.3% (inactive). In the case of `COc1ccc(Cl)cc1NC(=O)COC(=O)c1ccc(C)o1`, the activation in assay [1] (at 35 µM (top of the series)) was 0% (inactive). Consider `CCC(C)NC(=O)Cc1ccc(-c2ccccc2)cc1` (stereo not given), for which the activation in assay [1] (at 35 µM (top of the series)) is -33.3% (inactive). Consider `Cc1ccc(OCCNC(=O)c2cccc(C)c2)cc1`, for which the AC40 in assay [2] is 312 nM. On the same count and under the same terms, in the case of `O=C(Cc1ccc(-c2ccccc2)cc1)NC1CCCC1` it was 239 nM.

Turning to `Cc1c(Cl)cccc1-n1cnc(=O)c2ccccc21`, in assay [1] (at 35 µM (top of the series)), the activation was 50% (inactive).

As for `CCCn1nnnc1NCc1ccccc1Cl`, the activation in assay [1] (at 8 µM (top of the series)) is 0% (inactive).

With `CCOc1ccc(Nc2ccc3nonc3c2[N+](=O)[O-])cc1`, the activation in assay [1] (at 35 µM (top of the series)) was 0% (inactive). For the compound `COc1ccccc1NC(=O)COC(=O)c1ccc(C)cc1`, in assay [1] (at 35 µM (top of the series)), the activation was 0% (inactive). As for `O=c1ncn(-c2cccc(Cl)c2)c2ccccc12`, in assay [1] (at 8 µM (top of the series)), the activation was 0% (inactive).

For `COc1ccccc1NC(=O)COC(=O)c1oc2ccccc2c1C`, the activation in assay [1] (at 35 µM (top of the series)) was 0% (inactive). With `Cc1ccc(CC(=O)NC2CCCC2)cc1`, in assay [1] (at 35 µM (top of the series)), the activation is 0% (inactive). `Cc1ccc2cc3c(NC(=O)c4ccco4)nn(C)c3nc2c1`: the AC40 in assay [2] was > 35000 nM (inactive). For `CCn1nnnc1NCc1ccc(N2CCCC2)cc1`, the activation in assay [1] (at 35 µM (top of the series)) was 66.7% (inactive). With `CCn1nnc(NCc2ccc(C)cc2)n1`, the activation in assay [1] (at 35 µM (top of the series)) was 0% (inactive). With `CCCn1nnnc1NCc1ccc(N2CCCC2)cc1`, in assay [1] (at 35 µM (top of the series)), the activation is -50% (inactive). As to `CCn1c(CC(=O)Nc2cccc(Cl)c2Cl)nnc1SCCOc1ccc(OC)cc1`, the activation in assay [1] (at 35 µM (top of the series)) is -50% (inactive).

Take `COc1ccccc1NC(=O)COC(=O)c1cc2c(s1)CCC2`: the activation in assay [1] (at 35 µM (top of the series)) was 0% (inactive).
